# Literature values in patent US20220273570A1, “Self-Microemulsifying Multi-Deliverable Systems” (Quicksilver Scientific, Inc., priority 2019, published 2022).
# Read-outs that look alike come from different tables or passages of the source.
# Columns and labels:
# [1] = up to
# [2] = system: human hepatoma cell line (HepG2)
# [3] = rats, oral
# [4] = oral; extensively metabolized into glucuronide conjugate
smiles,measurement,setting,value
C[C@]12CC[C@H](O)CC1=CC[C@@H]1[C@@H]2CC[C@]2(C)C(=O)CC[C@@H]12 [DHEA],solubility in MCT oil,[1]; MCT oil,approximately 10 mg/mL
same,solubility in ethanol,[1]; ethanol,approximately 150 mg/mL
COc1cc(/C=C/C(=O)CC(=O)/C=C/c2ccc(O[C@@H]3O[C@H](C(=O)O)[C@@H](O)[C@H](O)[C@H]3O)c(OC)c2)ccc1O [curcumin-glucuronide],effects on gene expression compared with free curcumin,[2],weaker
COc1cc(/C=C/C(=O)CC(=O)/C=C/c2ccc(O)c(OC)c2)ccc1O [curcumin],bioavailability of orally administered solid curcumin powder,[3],1%
O=c1c(O)c(-c2ccc(O)c(O)c2)oc2cc(O)cc(O)c12 [quercetin],elimination half-life,after oral ingestion of quercetin containing foods or supplements,1 to 2 h
same,bioavailability,"humans, low and highly variable",0-50%
"Oc1ccc(/C=C/c2cc(O)cc(O)c2)cc1 [resveratrol, 3,5,4′-trihydroxy-trans-stilbene]",bioavailability,[4],about 0.5%
